Literature values in patent publication US20130150551A1, “PROCESSES FOR THE PRODUCTION OF HYDROGENATED PRODUCTS AND DERIVATIVES THEREOF” (BIOAMBER S.A.S., priority 2010, published 2013).

Settings: first acid group

pKa1: 4.43
SMILES: O=C(O)CCCCC(=O)O [AA, adipic acid]
